Several values for one entry are separate records, joined by “and”; a condition that tells them apart may be missing. Equal values may be shown once. Read-outs that look alike come from different tables or passages of the source.
What was measured:
adult H. polygyrus = experiment: microbe, parasite or virus in culture; format: cell-based, Heligmosomoides polygyrus
Description: To investigate the impact of the eleven benzimidazole derivatives under anaerobic conditions, an anaerobic chamber with an integrated incubator (Coy Laboratory Products, USA) was used. The same procedure was followed as described for the aerobic drug screening in adult H. polygyrus, but the incubation took place within the anaerobic chamber (37 °C, 85% N2, 10% CO2, 5% H2). Benzimidazole derivatives were tested at a concentration of 10 µM. For scoring, the plates had to be removed from the anaerobic chamber. The whole experiment was performed two times i.e., two independent biological replicates.
The activities of eleven benzimidazole derivatives were tested against adult H. polygyrus viability in vitro under aerobic (+, white boxplots) and anaerobic (–, coloured boxplots) conditions (see Methods). After 24-hour chemical treatment, worm viability was manually scored by an examiner using a scale from 0 (dead) to 3 (motile); DMSO was used as a negative control in both aerobic and anaerobic conditions; levamisole was used as a positive control in anaerobic conditions. The percentage of affected worms (i.e., worms with a score equal to or lower than 1.5) in each biological replicate is shown; data are from two biological replicates. Within each boxplot, black horizontal lines denote group medians, boxes span from the 25th to the 75th percentile of each group’s distribution, and whiskers extend to the maximum and minimum values. […]

H. polygyrus = settings: cited from earlier work
HEK293 cells = settings: human, 2 days, 6.3 µM
L1 wild-type C. elegans [1] = experiment: whole plant or invertebrate; settings: Caenorhabditis elegans, 15 h
C. elegans = C. elegans chemical screens of RIKEN NPD libraries at 50 μM (hit identification in KCN survival and development/viability assays); format: cell-based, Caenorhabditis elegans; settings: screened at 50 μM in triplicate; hit = modified z-score < −3; KCN = KCN survival assay, Dev. & Viability = development/viability assay
in vitro = settings: human
L1 wild-type C. elegans [2] = experiment: 15-hour motility assay with drug alone (no KCN); format: cell-based, Caenorhabditis elegans; settings: without KCN, 15-hour; for Value relative to DMSO control, drug alone (without KCN), Mean: mean of replicates; for Value relative to DMSO control, drug alone (without KCN): single replicates
L1 wild-type C. elegans [3] = settings: for KCN survival assay value relative to DMSO control, Mean / KCN survival assay value relative to DMSO control: drug + KCN, 15-hour; for KCN survival assay value relative to DMSO control, Mean: mean of replicates; for KCN survival assay value relative to DMSO control: single replicates
[4] = read-out: C. elegans KCN Survival Assay LC50

c1ccc([C@H]2CN3CCSC3=N2)cc1 [levamisole, reference compound]
# of Worms Affected (adult H. polygyrus): 12 | killing at 10 µM (adult H. polygyrus; Heligmosomoides polygyrus, 24 h, read-out: Percent Worms Affected): 100% | reduction in H. polygyrus worm burden (H. polygyrus; mouse, in vivo, 1.25 mg/kg): 62%

Fc1ccc(C(c2ccc(F)cc2)N2CCN(C/C=C/c3ccccc3)CC2)cc1 [Flunarizine]
HEK293 viability (HEK293 cells): 1.000 | LC50 (L1 wild-type C. elegans [1]; [4]): 22 µM | Hit Type (C. elegans): KCN | CC50 at 2 days (in vitro; HEK293 Cell Viability Assay LC50): 30.2 µM | viability (in vitro; HEK293 viability): 92.6% | viability at 2 days, 0.4 µM (in vitro; HEK293 viability): 88.1% | viability at 2 days, 0.8 µM (in vitro; HEK293 viability): 81.5% | viability at 2 days, 6.3 µM (in vitro; HEK293 viability): 100% | viability at 2 days, 12.5 µM (in vitro; HEK293 viability): 99.4% | viability at 2 days, 50 µM (in vitro; HEK293 viability): 17.1%

CO/N=C1\C[C@]2(C[C@@H]3C[C@@H](C/C=C(\C)C[C@@H](C)/C=C/C=C4\CO[C@@H]5[C@H](O)C(C)=C[C@@H](C(=O)O3)[C@]45O)O2)O[C@H](/C(C)=C/C(C)C)[C@H]1C [moxidectin]
reduction in H. polygyrus worm burden (H. polygyrus; single dose 1 mg/kg, mice): 99%

O=C(Nc1ccc([N+](=O)[O-])cc1Cl)c1cc(Cl)ccc1O [Niclosamide]
LC50 (L1 wild-type C. elegans [1]; [4]): 0.095 µM | LC50 (L1 wild-type C. elegans [1]; read-out: C. elegans KCN survival assay LC50): 0.0948 µM | Value relative to DMSO control, drug alone (without KCN), Mean (L1 wild-type C. elegans [2]; 0.025 µM): 1.071 | Value relative to DMSO control, drug alone (without KCN) (L1 wild-type C. elegans [2]; 0.025 µM): 0.995 and 1.216 and 1.349 and 0.779 and 1.019 | Value relative to DMSO control, drug alone (without KCN), Mean (L1 wild-type C. elegans [2]; 0.05 µM): 1.075 | Value relative to DMSO control, drug alone (without KCN) (L1 wild-type C. elegans [2]; 0.05 µM): 1.004 and 1.000 and 1.245 and 1.142 and 0.983 | Value relative to DMSO control, drug alone (without KCN), Mean (L1 wild-type C. elegans [2]; 0.1 µM): 0.944 | Value relative to DMSO control, drug alone (without KCN) (L1 wild-type C. elegans [2]; 0.1 µM): 0.881 and 0.705 and 1.000 and 1.091 and 1.040 | Value relative to DMSO control, drug alone (without KCN), Mean (L1 wild-type C. elegans [2]; 0.2 µM): 0.857 | Value relative to DMSO control, drug alone (without KCN) (L1 wild-type C. elegans [2]; 0.2 µM): 0.621 and 0.780 and 0.965 and 0.960 and 0.957 | Value relative to DMSO control, drug alone (without KCN), Mean (L1 wild-type C. elegans [2]; 0.4 µM): 0.828 | Value relative to DMSO control, drug alone (without KCN) (L1 wild-type C. elegans [2]; 0.4 µM): 0.811 and 0.792 and 0.740 and 0.844 and 0.957 | Value relative to DMSO control, drug alone (without KCN), Mean (L1 wild-type C. elegans [2]; 0.8 µM): 0.938 | Value relative to DMSO control, drug alone (without KCN) (L1 wild-type C. elegans [2]; 0.8 µM): 0.966 and 0.718 and 0.993 and 1.008 and 1.003 | Value relative to DMSO control, drug alone (without KCN), Mean (L1 wild-type C. elegans [2]; 3.1 µM): 0.892 | Value relative to DMSO control, drug alone (without KCN) (L1 wild-type C. elegans [2]; 3.1 µM): 0.775 and 0.855 and 0.898 and 1.068 and 0.863 | Value relative to DMSO control, drug alone (without KCN), Mean (L1 wild-type C. elegans [2]; 6.3 µM): 0.921 | Value relative to DMSO control, drug alone (without KCN) (L1 wild-type C. elegans [2]; 6.3 µM): 0.820 and 1.003 and 0.834 and 0.940 and 1.007 | Value relative to DMSO control, drug alone (without KCN), Mean (L1 wild-type C. elegans [2]; 12.5 µM): 1.018 | Value relative to DMSO control, drug alone (without KCN) (L1 wild-type C. elegans [2]; 12.5 µM): 0.937 and 0.884 and 0.971 and 1.234 and 1.065 | Value relative to DMSO control, drug alone (without KCN), Mean (L1 wild-type C. elegans [2]; 25 µM): 0.884 | Value relative to DMSO control, drug alone (without KCN) (L1 wild-type C. elegans [2]; 25 µM): 0.851 and 0.847 and 1.014 and 1.053 and 0.655 | Hit Type (C. elegans): KCN | C. elegans L1 relative motility, 3-hour post 200 µM KCN dilution (L1 wild-type C. elegans [3]; dose 0.05 µM, Mean of replicates): 1.030 | C. elegans L1 relative motility, 3-hour post 200 µM KCN dilution (L1 wild-type C. elegans [3]; dose 0.05 µM, individual replicate (Rep)): 1.077 and 0.962 and 1.145 | C. elegans L1 relative motility, 3-hour post 200 µM KCN dilution (L1 wild-type C. elegans [3]; dose 0.1 µM, Mean of replicates): 0.412 | C. elegans L1 relative motility, 3-hour post 200 µM KCN dilution (L1 wild-type C. elegans [3]; dose 0.1 µM, individual replicate (Rep)): 0.940 and 1.178 and 0.971 | C. elegans L1 relative motility, 3-hour post 200 µM KCN dilution (L1 wild-type C. elegans [3]; dose 0.2 µM, individual replicate (Rep)): 0.475 and 0.408 and 0.354 | C. elegans L1 relative motility, 3-hour post 200 µM KCN dilution (L1 wild-type C. elegans [3]; dose 0.8 µM, Mean of replicates): 0.011 | C. elegans L1 relative motility, 3-hour post 200 µM KCN dilution (L1 wild-type C. elegans [3]; dose 3.1 µM, Mean of replicates): 0.006 | C. elegans L1 relative motility, 3-hour post 200 µM KCN dilution (L1 wild-type C. elegans [3]; dose 3.1 µM, individual replicate (Rep)): 0.000 | C. elegans L1 relative motility, 3-hour post 200 µM KCN dilution (L1 wild-type C. elegans [3]; dose 6.3 µM, Mean of replicates): 0.039 | C. elegans L1 relative motility, 3-hour post 200 µM KCN dilution (L1 wild-type C. elegans [3]; dose 12.5 µM, Mean of replicates): 0.0056 | C. elegans L1 relative motility, 3-hour post 200 µM KCN dilution (L1 wild-type C. elegans [3]; dose 25 µM, Mean of replicates): 0.020 | C. elegans L1 relative motility, 3-hour post 200 µM KCN dilution (L1 wild-type C. elegans [3]; dose […], Mean of replicates): 0.000 | KCN survival assay value relative to DMSO control, Mean (L1 wild-type C. elegans [3]; 0.025 µM): 1.061 | KCN survival assay value relative to DMSO control (L1 wild-type C. elegans [3]; 0.025 µM): 0.962 and 1.145 and 1.077 | KCN survival assay value relative to DMSO control, Mean (L1 wild-type C. elegans [3]; 0.05 µM): 1.030 | KCN survival assay value relative to DMSO control (L1 wild-type C. elegans [3]; 0.05 µM): 1.178 and 0.971 and 0.940 | KCN survival assay value relative to DMSO control, Mean (L1 wild-type C. elegans [3]; 0.1 µM): 0.412 | KCN survival assay value relative to DMSO control (L1 wild-type C. elegans [3]; 0.1 µM): 0.408 and 0.354 and 0.475 | KCN survival assay value relative to DMSO control, Mean (L1 wild-type C. elegans [3]; 0.2 µM): 0.114 | KCN survival assay value relative to DMSO control, Mean (L1 wild-type C. elegans [3]; 0.4 µM): 0.0075 | KCN survival assay value relative to DMSO control, Mean (L1 wild-type C. elegans [3]; 0.8 µM): 0.011 | KCN survival assay value relative to DMSO control, Mean (L1 wild-type C. elegans [3]; 3.1 µM): 0.006 | KCN survival assay value relative to DMSO control, Mean (L1 wild-type C. elegans [3]; 6.3 µM): 0.039 | KCN survival assay value relative to DMSO control, Mean (L1 wild-type C. elegans [3]; 12.5 µM): 0.0056 | KCN survival assay value relative to DMSO control, Mean (L1 wild-type C. elegans [3]; 25 µM): 0.020

From PMC11079024, “Identification of a family of species-selective complex I inhibitors as potential anthelmintics” (Nature Communications, 2024)
